Consider 1 compound from US20240197928A1, “SODIUM-DEPENDENT GLUCOSE TRANSPORTER 2 AS A DIAGNOSTIC AND THERAPEUTIC TARGET FOR PRE-MALIGNANT LESIONS” (THE REGENTS OF THE UNIVERSITY OF CALIFORNIA, priority 2019, published 2024).

For one test, the target named is SGLT2 (Homo sapiens, UniProt P31639). The note with it: reference 39; cited from earlier work.
For test [1], the system named is patient-derived xenografts of human LADC. The experiment in a line: Therapeutic trial in patient-derived xenografts of human LADC. The format is in vivo, NSG mice. The text has this: Patient-derived xenografts. The tumor samples were obtained from surgically resected specimens after informed consent under the UCLA Lung SPORE (PDX #004 and #011) or the Long Beach Memorial Hospital Institutional Review Board protocol (PDX #013). One of the PDXs (#186) was purchased from the Jackson laboratories. PDXs were established and passaged in NSG mice. NSG mice were procured from the UCLA Radiation Oncology breeding colony. For each mouse, two small pieces of tumor tissue (4 mm^3) were implanted subcutaneously in the flank regions.
Patient-derived xenografts. The mice were randomized in two therapeutic groups (same as for the trials in GEMMs): placebo and canagliflozin (30 mg/kg per day) The number of mice per group was four for PDX #011, eight for PDX #013, three for PDX #004, and five for PDX #186; each mouse was inoculated with two tumors (one tumor on each flank). Some of the tumors of PDX #011 developed soft tissue metastases in the axillary regions, and these were counted as separate tumors. Overall, 38 tumors were included in the placebo and 39 tumors in the canagliflozin group. […] The tumor volumes at 2 weeks were counted as final tumor volumes.
Mice were imaged by Me4FDG and FDG PET/CT before treatment and 2 weeks after starting treatment. […] The mice were sacrificed, and the tumors were analyzed after 1 month of treatment. […]

For test [2] the test system is unchanged. In words: Me4FDG and FDG microPET in PDXs before and 2 weeks after the beginning of treatment. The format is in vivo, NSG mice. The note with it: canagliflozin 30 mg/kg per day.
Procedure: For the microPET in PDXs, a subset of the mice (PDXs #004, #013, and #186) received both Me4FDG and FDG PET scans the day before and 2 weeks after the beginning of treatment to evaluate the response of glucose transporter activity to the treatment.
The animals were anesthetized with 1.5% (v/v) isoflurane in oxygen, were given a dose of 100 μCi of Me4FDG or FDG via tail vein injection, and were maintained under anesthesia for 1 hour of unconscious uptake. The mice were then immobilized on the imaging bed and received a 10-min static PET scan followed by a CT scan. Each mouse received two different PET scans with the two tracers (Me4FDG and FDG) on consecutive days to allow for tracer decay. The equipments used were Focus 220 microPET scanner (Concorde Microsystems) and Inveon microPET scanner (Siemens) for the microPET scans and CrumpCAT (UCLA Crump Institute) for the microCT.
The PET data were analyzed with AMIDE software version 1.0.4 (amide.sourceforge.net/) (55). […] The percentage of injected dose for each ROI was calculated by dividing the measured activity in the ROI by the total injected dose, as measured from the PET image by designing an ROI encompassing the whole mouse. […] Briefly, we evaluated the background signal for each mouse by designing a ROI corresponding to the normal lung. We then calculated the CNR for each nodule by using the following formula (31)
For test [3], the system named is lung tumors in KPluc mice. The experiment in a line: Therapeutic trials in the KPluc genetically engineered mouse model of LADC. The conditions noted are these: vs placebo.

As for `Cc1ccc([C@@H]2O[C@H](CO)[C@@H](O)[C@H](O)[C@H]2O)cc1Cc1ccc(-c2ccc(F)cc2)s1` [canagliflozin], the “effectiveness as SGLT2 inhibitor compared with dapagliflozin” value on SGLT2 is reported as “more effective SGLT2 inhibitor than dapagliflozin”. Moreover, in test [1] (30 mg/kg per day oral gavage for 1 month, four PDXs, P=0.003), the “final tumor volumes lower than the control mice” value is “about 47%”. Also, in test [1] (95% confidence interval 0.36 to 0.80, P=0.003, adjusted for trial and mouse random effects), the “geometric mean ratio of final tumor volumes, treated vs control” value turned out to be 0.53. For the same compound, the “FDG signal from day 0 to day 14” value in test [2] is “did not significantly change”. For the same compound, the “Me4FDG uptake from day 0 to day 14” value in test [2] (P<0.001) was “significantly reduced”. In addition, the “Tumor burden estimated by bioluminescence imaging (BLI)” value in test [3] (30 mg/kg per day oral gavage from 2 weeks after tumor induction, P<0.001) was “significantly lower”. In addition, the “onset of tumors (BLI signal up to week 8)” value in test [3] (30 mg/kg per day oral gavage, P<0.001) was “significantly delayed”. Moreover, the “tumor burden by histological analysis of the lungs and measurement of tumor area” value in test [3] (at 8 weeks and in the survival cohort, P<0.05) is “significantly lower tumor burden”. Moreover, the mouse survival entry in test [3] (treated until death, n=15 per group, P=0.0003) is recorded as “significantly prolonged”. The “Ki67 proliferation rate in solid LADCs” value in test [3] was “not in solid LADCs”. In test [3] (P=0.001), the “Ki67 proliferation rate in premalignant lesions” value is on record as “significantly lower”.
